Data on four compounds can be found in patent US9289414B2 (priority 2004, dated 2016).

For one series, the system named is SVR cells. Nature of the series: SVR cell proliferation / viability bioassay (angiogenic bioassay). Format: cell-based, murine. As to conditions: FIG. 1. The method, then: Liquid extract of coal tar was concentrated under vacuum to get crude extract (20.0 mg). This extract was applied on a Sephadex LH 20 (3.0×100 cm) column and eluted with MeOH. The elution was monitored by TLC and similar fractions are combined to get 11 fractions. This fraction was assayed for inhibition of SVR cell viability (Arbiser et al. (1999) J. Am. Acad. Dermatol. 40, 925-929; and Bai et al. (2003) J. Biol. Chem. 278, 35501-35507). […] These changes are similar to what is observed when SVR cells are treated with an EGFR tyrosine kinase inhibitor.
Coal tar fractions were tested for their ability to inhibit the proliferation of SVR cells, an established angiogenic bioassay.

A further series has as its system EGFR. The series can be described thus: Drosophila EGFR eye phenotype assay. Format: in vivo, Drosophila melanogaster. As to conditions: treatment of mutant Drosophila. The text has this:
The epidermal growth factor receptor pathway controls cell fate throughout phylogeny. Binding of secreted ligands to EGFR on the cell surface initiates a cascade of events that ultimately invokes transcriptional changes in the nucleus. Ligand/receptor interactions are of critical importance during Drosophila eye development, as recruitment and differentiation of almost all photoreceptors are dependent on high levels of activation of the EGFR pathway. Binding of activating ligand to EGFR results in a cascade of membranous and cytoplasmic phosphorylation events.
(§1) In order to test whether carbazole and its derivatives affect EGFR, the compounds were tested using a novel EGFR assay that is amenable to high throughput screening.

The next series relates to Drosophila embryos. The series can be described thus: Normal development of Drosophila embryos. The arrangement: species or system Drosophila melanogaster. To be noted: in vivo. The method, then: as §1
For series [1], the system named is signaling lymphocyte activator molecule associated protein (SAP). The series can be described thus: PSK-induced SAP expression in lymphocytes. As to conditions: FIG. 2B. The format is cell-based, human.
The subject of the next series is Rac. The series can be described thus: Rac activation in HUVEC after VEGF stimulation (PAK-1 PBD pull-down). Format: cell-based, human. As to conditions: carbazole 5 mg/ml pretreatment 1 hr, VEGF 20 ng/ml 5 min, FIG. 5. The method, then:
Cells were lysed with ice-cold lysis buffer, pH 7.5, containing 25 mmol/liter HEPES, 150 mmol/liter NaCl, 1% IGEPAL CA-630, 0.25% sodium deoxycholate, 10 mmol/liter MgCl2, 10% glycerol, 25 mmol/liter NaF, 1 mmol/liter EDTA, 1 mmol/liter sodium orthovanadate, 10 μg/ml leupeptin, 10 μg/ml aprotinin, and 1 mmol/liter phenylmethylsulfonyl fluoride. Activated (GTP-bound) Rac was affinity-precipitated with p21-activated kinase-1 protein binding domain peptide, which binds only to Rac-GTP and not Rac-GDP.
p21-Activated kinase-1 protein binding domain-agarose (7.5 μg/mg cell lysate, Upstate Biotechnology) was added, and the reaction mixture was gently rocked at 4° C. for 60 min. The agarose beads were collected by pulsing for 5 s in a microcentrifuge at 14,000×g, and the beads were washed three times with 0.5 ml of lysis buffer. The agarose beads were resuspended in 40 μl of 1×SDS sample buffer and boiled for 5 min. The supernatant was separated by SDS-PAGE on a 12% gel, and the proteins were transferred to nitrocellulose membrane. After blocking for 1 h in PBS containing 5% nonfat dry milk and 0.1% Tween 20, the membrane was incubated with anti-Rac antibody (1:1000 dilution, Upstate Biotechnology) overnight. After incubation with the secondary antibody, Rac was detected by enhanced chemiluminescence.

In the next series the test system is interleukin-15 (IL-15). Nature of the series: IL-15 production by PSK-activated mononuclear cells. Format: cell-based, human. As to conditions: PSK-stimulated mononuclear cells, FIG. 2A. An excerpt:
Cytokine production by mononuclear cells plays an important role in psoriasis. One of the cardinal cytokines involved in the pathogenesis of psoriasis is interleukin-15 (IL-15). IL-15 plays several roles that may be important in psoriasis. […] In addition, IL-15 is angiogenic in vivo.

The next series deals with iNOS. The series can be described thus: iNOS expression, in vitro translation and Western blot of HEK293 and RAW264.7 cells. To be noted: FIG. 3A-C. Format: cell-based. The method, then:
Reactions were performed at 30° C. for 90 min. Translation products were separated by SDS/PAGE, and bands, representing ^35S-labeled iNOS, were detected by Phosphoimager (Molecular Dynamics). The data shown in FIG. 3A represent two independent experiments done in duplicates.
Transfection and stable cell line production of HEK293 cells was performed by cationic lipid-mediated transient transfection using “LipofectAMINE 2000” (Invitrogen) following manufacturer's instructions. Stable cell line expressing iNOS, were produced by using transfection of iNOS cDNA followed by positive colony selection using G418 (Invitrogen) at concentration of 600 μg/ml. iNOS Induction of mouse macrophages RAW264.7, involved incubating the cells with a mixture of mouse interferon (mIFN)-γ (10 u/ml) and LPS (100 ng/ml).
Cell lysis was performed on collected cells. After gently rinsing the cells twice with phosphate-buffered saline, the cell layer was lysed on ice for 30 min in 40 mM Bis-Tris propane buffer, pH 7.7, 150 mM NaCl, 10% glycerol, 1% Triton-X100 in the presence of protease inhibitors (phenylmethylsulfonyl fluoride (1 mM), pepstatin-A (10 μg/ml), leupeptin (10 μg/ml), aprotinin (10 μg/ml), phenanthroline (10 μg/ml), benzamidine HCl (16 μg/ml)) (PharMingen). […] Total protein concentrations were determined by using a bicinchoninic acid reagent, following the manufacturer's instructions (Pierce). […]

`Oc1ccc2c(c1)[nH]c1ccccc12` [2-hydroxy carbazole, 2-hydroxycarbazole]: in the series on SVR cells, the antiproliferative activity entry is on record as “more potent antiproliferative activity”.

In the case of `Oc1ccc2[nH]c3ccccc3c2c1` [3-hydroxy carbazole, 3-hydroxycarbazole], the antiproliferative activity entry in the series on SVR cells is on record as “more potent antiproliferative activity”.

Consider `Oc1cccc2[nH]c3ccccc3c12` [4-hydroxy carbazole, 4-hydroxycarbazole], for which the antiproliferative activity result with SVR cells is “more potent antiproliferative activity”. For the same compound, the “effect on eye phenotype of mutant Drosophila with active EGFR” value in the series on EGFR was “correction of the phenotypic defect”. Also, in the series on Drosophila embryos, the “effect on normal development of Drosophila embryos” value was “no effect”.

As to `c1ccc2c(c1)[nH]c1ccccc12` [carbazole, 9H-Carbazole], the SAP expression entry in series [1] is “inhibited”. In the series on SVR cells, the antiproliferative activity entry is listed as “mild antiproliferative activity”. Also, the “effect on eye phenotype of mutant Drosophila with active EGFR” value in the series with EGFR is “correction of the phenotypic defect”. Also, the “rac activation in response to VEGF” value in the series with Rac was “blocks rac activation”. Moreover, the “effect on normal development of Drosophila embryos” value in the series on Drosophila embryos is reported as “no effect”. Besides, in the series with interleukin-15 (IL-15), the “production of IL-15” value is listed as “inhibited production of IL-15”. Besides, in the series with iNOS, the “levels of nitric oxide synthase enzyme” value is on record as “without affecting levels of enzyme”.
